Source: US20260263445A1, “TGF-BETA INHIBITOR FOR USE IN THE TREATMENT OF DEDIFFERENTIATED LIPOSARCOMA” (Institut Curie, priority 2023, published 2026)

Assays:
TGFβ pathway = experiment: Ex vivo inhibition of TGFβ pathway in DDLPS PDX Sil10AS; format: cell-based, human
Source text: Tests and assays for determining whether a compound is a TGFβ inhibitor are well known by the skilled person in the art such as described in Frey et al., 2022; Szymańska et al., 2020. Determining whether a compound is a TGFβ inhibitor may also be performed using by using recombinant TGFβ proteins, competitive binding assays and measuring the binding affinities, measuring activated TGF-β complexes with other factors to form a serine/threonine kinase complex that binds to TGF-β receptors. […] In another particular embodiment, a TGFβ inhibitor according to the invention is at least as effective as galunisertib and/or as SB431542 in reducing phosphorylation level of SMAD2 and/or SMAD3 protein. Antibodies and/or kits to detect and quantify said phosphorylation level are well known from the skilled in the art and are commercially available.
(§1) The inventors also investigated the role of TGFβ in adipocytic differentiation in DDLPS, particularly advanced DDLPS using several TGFβ inhibitors, of a different mode of action and of different nature, such as compounds selected from the group consisting of TGFβ receptor R1/R2 inhibitors LY2109761 and LY364947; monoclonal anti-TGFβ antibodies BX-BE0057 and fresolimumab; TGFβ ligand trap such as luspatercept (a fusion protein that traps TGFβ ligands preventing them from binding to Type II TGFβ receptors) and bintrafusp alfa (a Bifunctional Fusion Protein Targeting TGF-β and PD-L1) and TQB2858 (an anti-TGF-β/PD-L1 antibody).

[1] = system: DD tumor cells from 2 DDLPS PDX models; experiment: Ex vivo adipocytic differentiation of DD tumor cells from DDLPS PDX models; format: cell-based, human; settings: ex vivo/in vitro, transcriptomic and phenotypic level
Source text: DDLPS tumor cells keep the multipotent properties of their progenitors. […] Adipocytic differentiation is confirmed with the detection of green vacuoles (Bodipy staining) and osteogenic differentiation by red staining after Alizarin red treatment (Data not shown).
as §1

DDLPS PDX Sil10AS = experiment: Nude mice engrafted with DDLPS PDX Sil10AS: tumor growth and differentiation; format: in vivo
Description: 7 nude mice engrafted with the DDLPS PDX Sil10AS are treated with TGFβ inhibitor galunisertib. The tumor growth rate is compared to a control group of 7 nude mice engrafted with the same PDX model and treated with a vehicle. At the end of the experiment, tumor differentiation are assessed at the microscopic and transcriptomic level.

c1ccc(-c2[nH]ncc2-c2ccnc3ccccc23)nc1 [LY364947]
inhibiting ex vivo TGFβ pathway, compared with galunisertib or SB431542 (TGFβ pathway): at least as effective than galunisertib or SB431542 | adipocytic differentiation of DD tumor cells [1]: restore adipocytic differentiation phenotype

c1ccc(-c2nn3c(c2-c2ccnc4cc(OCCN5CCOCC5)ccc24)CCC3)nc1 [LY2109761]
inhibiting ex vivo TGFβ pathway, compared with galunisertib or SB431542 (TGFβ pathway): at least as effective than galunisertib or SB431542 | adipocytic differentiation of DD tumor cells [1]: restore adipocytic differentiation phenotype

NC(=O)c1ccc(-c2nc(-c3ccc4c(c3)OCO4)c(-c3ccccn3)[nH]2)cc1 [SB431542]
adipocytic differentiation of DD tumor cells [1]: restores adipocytic differentiation

Cc1cccc(-c2nn3c(c2-c2ccnc4ccc(C(N)=O)cc24)CCC3)n1 [galunisertib]
adipocytic differentiation of DD cells in treated PDX (DDLPS PDX Sil10AS; DDLPS PDX in nude mice, assessed at the microscopic and transcriptomic level at end of experiment): restore adipocytic differentiation | tumor growth (DDLPS PDX Sil10AS; nude mice engrafted with DDLPS PDX Sil10AS, compared with vehicle group): reduce tumor growth | adipocytic differentiation of DD tumor cells [1]: restores adipocytic differentiation

TGFβ
adipocytic differentiation of DD tumor cells [1]: prevented

fresolimumab: monoclonal anti-TGFβ antibody; CAS 948564-73-6
inhibiting ex vivo TGFβ pathway, compared with galunisertib or SB431542 (TGFβ pathway): at least as effective than galunisertib or SB431542 | adipocytic differentiation of DD tumor cells [1]: restore adipocytic differentiation phenotype

B1: bintrafusp alfa: Bifunctional Fusion Protein Targeting TGF-β and PD-L1; CAS 1918149-01-5 (antibody, chains of the INN, looked up, V domains shown)
VH: EVQLLESGGGLVQPGGSLRLSCAASGFTFSSYIMMWVRQAPGKGLEWVSSIYPSGGITFYADTVKGRFTISRDNSKNTLYLQMNSLRAEDTAVYYCARIKLGTVTTVDYWGQGTLVTVSS
VL: QSALTQPASVSGSPGQSITISCTGTSSDVGGYNYVSWYQQHPGKAPKLMIYDVSNRPSGVSNRFSGSKSGNTASLTISGLQAEDEADYYCSSYTSSSTRVFGTGTKVTVL
inhibiting ex vivo TGFβ pathway, compared with galunisertib or SB431542 (TGFβ pathway): at least as effective than galunisertib or SB431542 | adipocytic differentiation of DD tumor cells [1]: restore adipocytic differentiation phenotype
